The values that follow come from patent publication US7615527B2, “Peptides which modulate blood coagulation and methods of use thereof” (Oregon Health & Science University, priority 2001, dated 2009).

The target of data set [1] is thrombin (Homo sapiens, UniProt P00734). Conditions: prior studies by others (43); read-out: Ki, direct inhibitory activity towards thrombin; cited from earlier work.
Data set [2] deals with T1, α-thrombin (Homo sapiens, UniProt P00734). Briefly: Competitive binding assay: α-thrombin binding to fluoresceinated γ′ 408-427 peptide. Also noted: incubating 2 nM fluoresceinated peptide with 2 μM α-thrombin; thrombin: gift of Dr. John Fenton, II and Dr. Walter Kisiel; tracer peptide: Research Genetics. Conditions: 2 nM fluoresceinated peptide with 2 μM α-thrombin. The text has this: Proteins, Peptides, and DNA Aptamers. Human α-thrombin was generously provided by Dr. John Fenton, II (New York State Department of Health, Albany, N.Y.) and Dr. Walter Kisiel (University of New Mexico, Albuquerque, N. Mex.). Human γ-thrombin was obtained from Haematologic Technologies, Inc. (Essex Junction, Vt.). Tyrosine-phosphorylated derivatives of peptides corresponding to the γ′ chain carboxyl terminus, […] (SEQ ID NO: 11), were obtained from Research Genetics, Inc. (Huntsville, Ala.) and GeneMed Synthesis, Inc. (South San Francisco, Calif.). The peptides were purified to >95% purity by HPLC, and their molecular weights were verified by mass spectrometry. Tyrosine-sulfated, amino-terminal acetylated hirudin peptide 53-65 was obtained from Bachem, Inc. (Torrance, Calif.) and tyrosine-sulfated hirudin peptide 54-65 was obtained from Sigma (St. Louis, Mo.). Single-stranded DNA aptamers 5′-GGT-TGG-TGT-GGT-TGG-3′ (SEQ ID NO: 5), referred to as HD1, and 5′-AGT-CCG-TGG-TAG-GGC-AGG-TTG-GGG-TGA-CT-3′ (SEQ ID NO: 6), referred to as HD22, were generously provided by Dr. Jeffrey I. Weitz (McMaster University, Hamilton, ONT, Canada). A monoclonal antibody directed against thrombin exosite II (34) was a gift from Dr. Douglas M. Tollefsen (Washington University, St. Louis, Mo.). Production of Recombinant Fibrinogens Recombinant fibrinogen molecules were expressed with tyrosine to phenylalanine mutations in the γ′ chain at positions γ′ 418 and/or γ′ 422. Plasmid pAG-γ′ (10) was used as the template for site-directed mutagenesis (35) using the primer GAA-ACA-GAA-TTT-GAC-TCA-CTT (SEQ ID NO: 7) for Y418F, GAC-TCA-CTT-TTC-CCT-GAG-GAT (SEQ ID NO: 8) for Y422F, and GAA-ACA-GAA-TTT-GAC-TCA-CTT-TTC-CCT-GAG-GAT (SEQ ID NO: 9) for Y418F/Y422F. The mutated pAG-γ′ plasmids were co-transfected with pBD-1 into a baby hamster kidney cell line as described previously (10). Recombinant fibrinogens were labeled with 1 mCi/ml ^35SO4 in serum-free medium and immunoprecipitated from the medium using a rabbit polyclonal anti-fibrinogen antiserum (Accurate Chemical and Scientific Corp., Westbury, N.Y.) as described previously (10). The amount of fibrinogen secreted during the labeling was determined using an ELISA described previously (10). Identical amounts of radiolabeled fibrinogens (300 ng) were resolved by SDS-polyacrylamide gel electrophoresis on 10% gels under reducing conditions (36) and exposed to X-ray film. Thrombin/γ′ Peptide Binding Assay. To quantitate the binding of thrombin to the γ′ chain carboxyl terminus, 50 nM […]-Y (PO3)-DSL-Y (PO3)—PEDDL (SEQ ID NO: 10) peptide (Research Genetics), corresponding to the carboxyl terminal twenty amino acids of the γ′ chain, was labeled for 1 hour at 37° C. with a 5-fold molar excess of fluorescein succinimidyl ester (PanVera) in 100 mM potassium phosphate, pH 7.0 as per the manufacturer's protocol. Unreacted fluorescein succinimidyl ester was reacted with 100 mM Tris, pH 8.0 for 30 minutes and removed by desalting the fluoresceinated peptide on Sephadex G-15 in 137 mM NaCl/2.7 mM KCl/10 mM HEPES, pH 7.4. 2 nM fluoresceinated peptide was incubated with the indicated concentrations of thrombin for 30 seconds at 22° C. in 50 μg/ml BSA/137 mM NaCl/2.7 mM KCl/10 mM HEPES, pH 7.4. Fluorescence polarization was measured following excitation at 488 nm and emission at 535 nm. The data are fit to the equation: y=x/(b+x) where y is fit to x, using “x” as the concentration of thrombin and “b” as the Kd.
Competitive binding assays were performed by incubating 2 nM fluoresceinated peptide with 2 μM α-thrombin in the presence of the indicated concentrations of competing ligand. Fluorescence polarization was measured following excitation at 488 nm and emission at 535 nm.

In data set [3] the target is T1, α-thrombin. Briefly: Thrombin/γ′ peptide binding assay (fluorescence polarization). Details: Human α-thrombin; gift: Dr. John Fenton, II (New York State Department of Health) and Dr. Walter Kisiel (University of New Mexico). Conditions: 2 nM fluoresceinated peptide, 22° C., pH 7.4, read-out: Kd, binding of α-thrombin to fluoresceinated γ′ 408-427 peptide. The text has this:
Proteins, Peptides, and DNA Aptamers. Human α-thrombin was generously provided by Dr. John Fenton, II (New York State Department of Health, Albany, N.Y.) and Dr. Walter Kisiel (University of New Mexico, Albuquerque, N. Mex.). Human γ-thrombin was obtained from Haematologic Technologies, Inc. (Essex Junction, Vt.). Tyrosine-phosphorylated derivatives of peptides corresponding to the γ′ chain carboxyl terminus, […] (SEQ ID NO: 11), were obtained from Research Genetics, Inc. (Huntsville, Ala.) and GeneMed Synthesis, Inc. (South San Francisco, Calif.). The peptides were purified to >95% purity by HPLC, and their molecular weights were verified by mass spectrometry. […] The amount of fibrinogen secreted during the labeling was determined using an ELISA described previously (10). […] To quantitate the binding of thrombin to the γ′ chain carboxyl terminus, 50 nM […]-Y (PO3)-DSL-Y (PO3)—PEDDL (SEQ ID NO: 10) peptide (Research Genetics), corresponding to the carboxyl terminal twenty amino acids of the γ′ chain, was labeled for 1 hour at 37° C. with a 5-fold molar excess of fluorescein succinimidyl ester (PanVera) in 100 mM potassium phosphate, pH 7.0 as per the manufacturer's protocol. […] Fluorescence polarization was measured following excitation at 488 nm and emission at 535 nm. […]
A general note: Polarisation of emitted light reports the rotation of a fluorescent probe.

Data set [4] has as its target T1, α-thrombin. Briefly: Thrombin inhibition assay (ATIII, with or without heparin, Chromozym TH). In kind it is biochemical. Details: incubating 2 nM fluoresceinated peptide with 2 μM α-thrombin; thrombin: gift of Dr. John Fenton, II and Dr. Walter Kisiel; tracer peptide: Research Genetics. How it is done: Thrombin Inhibition Assay. […] In some experiments, 0.33 μM heparin (Sigma) was included in the reaction. The inhibition reaction was terminated by the addition of 0.3 ml of a vast molar excess of substrate, 1.25 mg/ml Chromozym TH (Boehringer Mannheim, Indianapolis, Ind.), and the remaining thrombin activity was subsequently measured by monitoring the absorbance at 405 nm for 15 minutes at 22° C. Results Two Tyrosine Residues in the γ′ Chain Are Sulfated. […] Since the γ′ chain differs from the γA chain only in its carboxyl terminal 20 amino acids, it has been assumed that the sulfated residues are within this 20 amino acid sequence, although the addition of the γ′ sequence could also induce conformational changes in the γ chain that expose new sites for sulfation upstream of the carboxyl terminus. […] The carboxyl terminus of the γ′ chain contains two potential sites for tyrosine sulfation at positions γ′ Y418 and γ′ Y422. […] However, no direct evidence of sulfation at γ′ Y418 or γ′ Y422 was presented. Furthermore, in both bovine and rat fibrinogen, the γ′ chain terminates at the equivalent of γ′ 420, prior to γ′ Y422 (37, 38). The rat γ′ chain does, however, contain sulfotyrosine (39). […]

Data set [5] has as its system normal human reference plasma. Briefly: Activated partial thromboplastin time (aPTT) assay in human plasma. It counts as biochemical. The conditions noted are these: human plasma; 0-1 mM peptide. The procedure: Activated Partial Thromboplastin Time (aPTT) Assay. This anti-coagulation assay was chosen for testing the γ′ peptides due to its sensitivity to heparin-like compounds, its ease of use, and the ability to automate the procedure. An MLA 1600 instrument (Organon Teknika) was used to quantitate the effect of the γ′ peptides on the aPTT, using the manufacturer's protocol. Briefly, 0-1 mM γ′ peptides or 0-10 units/ml unfractionated heparin was added to 50 μl of normal reference plasma (Ortho) and manually loaded into the MLA 1600. The MLA 1600 added SynthASil aPTT reagent (Ortho) to initiate clotting, and clot formation was monitored spectrophotometrically for 106 seconds. […] Prothrombin Time/International Normalized Ratio Assay. This clotting assay is less sensitive to heparin than the aPTT, and may be used to determine if a γ′ peptide is capable of prolonging the prothrombin time (PT) to the same extent as the 3 aPTT. One-stage PT assays may be performed using an MLA 1600 instrument according to the manufacturer's protocol. Briefly, 0-1 mM γ′ peptide or scrambled peptide or 0-10 units/ml unfractionated heparin may be added to 50 μl of normal reference plasma (Ortho) and manually loaded into the MLA 1600. The MLA 1600 may be used to add recombinant thromboplastin (Recombiplastin, Ortho) to initiate clotting, and clot formation monitored spectrophotometrically for 106 seconds. If a clot is not generated within 106 seconds, the MLA will automatically extend the observation time to 212 seconds.
An aPTT assay was performed using human plasma to determine the effect of γ′ peptide on the clotting time in this system. […] The MLA 1600 added SynthASil aPTT reagent (Ortho) to initiate clotting and clot formation was monitored spectrophotometrically for 106 seconds. […]
An aPTT assay was performed using human plasma to determine the effect of γ′ deletion peptides on the clotting time in this system. […] The MLA 1600 added SynthASil aPTT reagent (Ortho) to initiate clotting and clot formation was monitored spectrophotometrically for 106 seconds. […]

Square brackets hold non-standard residues; d marks the D form. Ends that are not written are not given here. Peptide text beside a SMILES is read from it. pY = N[C@@H](Cc1ccc(OP(=O)(O)O)cc1)C(=O)O

A word on the Ki: it is the equilibrium dissociation constant of an inhibitor or competing ligand from its target. With “VRPEHPAETEYDSLYPEDDL [nonphosphorylated peptide]”, the Ki in data set [1] is 130000 nM. In addition, in data set [2], the “Inhibition of α-thrombin binding to fluoresceinated γ′ 408-427 peptide (in words)” value (“Inhibition of α-thrombin binding” below) is “completely inactive”.

What is called Kd is a measure of binding affinity in units of concentration. With `CC(C)C[C@H](NC(=O)[C@H](CC(=O)O)NC(=O)[C@H](CC(=O)O)NC(=O)[C@H](CCC(=O)O)NC(=O)[C@@H]1CCCN1C(=O)[C@H](Cc1ccc(OP(=O)(O)O)cc1)NC(=O)[C@H](CC(C)C)NC(=O)[C@H](CO)NC(=O)[C@H](CC(=O)O)NC(=O)[C@H](Cc1ccc(OP(=O)(O)O)cc1)NC(=O)[C@H](CCC(=O)O)NC(=O)[C@@H](NC(=O)[C@H](CCC(=O)O)NC(=O)[C@H](C)NC(=O)[C@@H]1CCCN1C(=O)[C@H](Cc1c[nH]cn1)NC(=O)[C@H](CCC(=O)O)NC(=O)[C@@H]1CCCN1C(=O)[C@H](CCCNC(=N)N)NC(=O)[C@@H](N)C(C)C)[C@@H](C)O)C(=O)O` [γ′ 408-427] (H-VRPEHPAETE[pY]DSL[pY]PEDDL-OH; N-terminus and C-terminus assumed), the Kd in data set [3] came to 430 ± 80 nM. The Ki in data set [2] (read-out: Ki, competition for α-thrombin binding to fluoresceinated γ′ 408-427 peptide) is 520 ± 140 nM. Also, in data set [4] (0.33 μM heparin, 13.7 nM ATIII, 0-1.0 mM γ′ peptide, 15 minutes), the “Effect on heparin's acceleration of thrombin inhibition by ATIII” value was “antagonized the accelerative activity of heparin in a dose-dependent manner”. Further, the “Direct inhibition of thrombin” value in data set [4] (concentrations up to 1 mM, data not shown) is reported as “not directly inhibitory”.

Consider “EY(*)DSLY(*)PEDDL (EYDSLYPEDDL; not fully specified (residues 2, 6); printed as EY(*)DSLY(*)PEDDL) [peptide 417-427]”, for which, in data set [5], the “Anticoagulant effect in aPTT (in words)” value is recorded as “further reduction in activity”. The “Inhibition of α-thrombin binding” value in data set [2] was “completely inactive”.

For “5′-AGT-CCG-TGG-TAG-GGC-AGG-TTG-GGG-TGA-CT-3′ [HD22, reference compound]”, the “Inhibition of α-thrombin binding” value in data set [2] is recorded as “more potent competitor than HD1”.

“VRPEHPAETEY(*)DSLY(*)PE (VRPEHPAETEYDSLYPE; not fully specified (residues 11, 15); printed as VRPEHPAETEY(*)DSLY(*)PE) [peptide 408-424]”: the “Inhibition of α-thrombin binding” value in data set [2] is reported as “lower affinity”.

Regarding “AETEY(*)DSLY(*)PEDDL (AETEYDSLYPEDDL; not fully specified (residues 5, 9); printed as AETEY(*)DSLY(*)PEDDL) [peptide 414-427]”, the “Anticoagulant effect in aPTT (in words)” value in data set [5] is listed as “reduced level of anticoagulant activity”. In data set [2], the “Inhibition of α-thrombin binding” value is “lower affinity”.
